Reference: EP2140864A2 (H. Lundbeck A/S, priority 2001, dated 2002)
pKi: −log10 of the molar value. Where two headings read alike, the source gives them in different places. Marks after values point to notes of the source that are not given here.

What was measured:
[1] = molecular target: T1, human GAL1 receptor (Homo sapiens, UniProt P47211); test: Radioligand binding at cloned human GAL1 receptor
T1 construct: expressed in transfected cells
T1 sequence (P47211 1-349): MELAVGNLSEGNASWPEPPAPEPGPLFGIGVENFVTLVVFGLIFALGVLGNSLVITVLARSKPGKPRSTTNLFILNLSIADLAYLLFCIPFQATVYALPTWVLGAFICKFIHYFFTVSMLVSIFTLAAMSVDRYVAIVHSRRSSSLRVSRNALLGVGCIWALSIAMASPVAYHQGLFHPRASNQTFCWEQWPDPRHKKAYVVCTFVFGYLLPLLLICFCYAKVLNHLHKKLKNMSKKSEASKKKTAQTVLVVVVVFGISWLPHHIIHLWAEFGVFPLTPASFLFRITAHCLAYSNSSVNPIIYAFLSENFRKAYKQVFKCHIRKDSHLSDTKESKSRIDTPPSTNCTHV
Experimental: The binding properties of the pyrimidines of the present invention were evaluated at the cloned human galanin receptors, GAL1, GAL2, and GAL3, using protocols described herein. […]
LM(tk-) cells were stably transfected with the human GAL1 or GAL3 receptor. CHO cells were stably transfected with the human GAL2 receptor.
cDNAs for the human and rat GAL1, and human and rat GAL3 receptors were transfected with a G-418 resistant gene into the mouse fibroblast LM(tk-) cell line by a calcium phosphate transfection method (Cullen, 1987). Stably transfected cells were selected with G-418. Human and rat GAL2 receptors were similarly transfected into CHO cells.
Membranes were harvested from stably transfected LM(tk-) cells. Adherent cells were washed twice in ice-cold phosphate buffered saline (138 mM NaCl, 8.1 mM Na2HPO4, 2.5 mM KCl, 1.2 mM KH2PO4, 0.9 mM CaCl2, 0.5 mM MgCl2, pH 7.4) and lysed by sonication in ice-cold sonication buffer (20 mM Tris-HCl, 5 mM EDTA, pH 7.7). Large particles and debris were cleared by low speed centrifugation (200 x g, 5 min, 4°C). Membranes were collected from the supernatant fraction by centrifugation (32,000 x g, 18 min, 4°C), washed with ice-cold hypotonic buffer, and collected again by centrifugation (32,000 x g, 18 min, 4°C). The final membrane pellet was resuspended by sonication into a small volume of ice-cold binding buffer (-1 ml for every 5 plates: 10 mM NaCl, 20 mM HEPES, 0.22 mM KH2PO4, 1.26 mM CaCl2, 0.81 mM MgSO4, pH 7.4). Protein concentration was measured by the Bradford method (Bradford, 1976) using Bio-Rad Reagent, with bovine serum albumin as a standard. Membranes were held on ice for up to one hour and used fresh, or flash frozen and stored in liquid nitrogen. Membranes were prepared similarly from CHO cells.
Galanin Recentors: Binding assays were performed according to the following published methods: human GAL3 (PCT International Publication No. WO 98/15570), human GAL1 (PCT International Publication No. WO 95/2260), human GAL2 (PCT International Publication No. WO 97/26853).
Binding data were analyzed using nonlinear regression and statistical techniques available in the GraphPAD Prism package (San Diego, CA). Enzymatic assay data were derived from a standard curve of reference compound data.

[2] = test system: Male Sprague-Dawley rats; test: Rat Forced Swim Test (FST); format: in vivo; settings: for antidepressant profile in the FST (conclusion): overall conclusion of the study
Experimental: The procedure used in this study was similar to that previously described (Porsolt, et al., 1978), except the water depth (30 cm in this procedure). The greater depth in this test prevented the rats from supporting themselves by touching the bottom of the cylinder with their feet. Swim sessions were conducted by placing rats in individual plexiglass cylinders (46 cm tall x 20 cm in diameter) containing 23-25°C water 30 cm deep (Porsolt, et al. used a depth of only 15 cm; also, see Detke, et al., 1995). Two swim tests were conducted always between 1200 and 1800 hours: an initial 15-min pretest followed 24 h later by a 5-minute test. […] All other test sessions were conducted between 1300 to 1700 hours. Following all swim sessions, rats were removed from the cylinders, dried with paper towels and placed in a heated cage for 15 minutes and returned to their home cages. All test sessions were videotaped using a Panasonic color video camera and recorder for scoring later.
Male Sprague-Dawley rats (Taconic Farms, NY) were used in all experiments. Rats were housed in pairs and maintained on a 12:12-h light-dark cycle. Rats were handled for 5 minutes each day for 5 days prior to behavioral testing.
The rat's behavior was rated at 5 second intervals during the 5 minute test as one of the following: • 1. Immobility- rat remained floating in the water without struggling and was only making those movements necessary to keep its head above water; • 2. Climbing - rat was making active movements with its forepaws in and out of the water, usually directed against the walls; • 3. Swimming - rat was making active swimming motions, more than necessary to merely maintain its head above water, e.g. moving around in the cylinder; and • 4. Diving - entire body of the rat was submerged.
All of the behavior scoring was done by a single rater, who was blind to the treatment condition. The rater was also present in the room throughout the entire test period.
All injections were given using 1 cc tuberculin syringe with 26 3/8 gauge needles (Becton-Dickinson, VWR Scientific, Bridgeport, NJ). The volume of injection was 1 ml/kg.
The drugs were dissolved in 100% N,N-dimethylacetamide. All administrations were given using 1 cc tuberculin syringes, to which a 3 inch, curved, stainless steel gavage needle was attached. The volume of administration was 1 ml/kg.
The compounds were dissolved in 100% N,N-dimethylacetamide. All administrations were given using 1 cc tuberculin syringes, to which a 3 inch, curved, stainless steel gavage needle was attached. The volume of administration was 1 ml/kg.
The forced swim test data (immobility, swimming, climbing, diving) were subjected to a randomized, one-way ANOVA and post hoc tests conducted using the Student-Newman-heuls test. The data were analyzed using the GBSTAT program, version 6.5 (Dynamics Microsystems, Inc., Silver Spring, MD, 1997). All data are presented as means ± S.E.M.

[3] = test system: Male albino Sprague-Dawley rats; test: Rat Social Interaction Test (SIT); format: in vivo; settings: 1 hour prior to testing
[4] = 3 mg/kg p.o., single administration, 1 hr. before test
[5] = 10 mg/kg p.o., single administration, 1 hr. before test
[6] = 30 mg/kg p.o., single administration, 1 hr. before test
[7] = 30 mg/kg i.p., single injection, 5 minute test
[8] = pyrimidines, read-out: Ki GalR1

| Structure (SMILES) | pKi ([1]; indolones, read-out: Ki GalR1) | Climbing [2, 4] | Diving [2, 4] | Immobility [2, 4] | Swimming [2, 4] | Climbing [2, 5] | Diving [2, 5] | Immobility [2, 5] | Swimming [2, 5] | Climbing [2, 6] | Diving [2, 6] | Immobility [2, 6] | Swimming [2, 6] | antidepressant profile in the FST (conclusion) [2] | pKi [1, 8] | also measured |
| --- | --- | --- | --- | --- | --- | --- | --- | --- | --- | --- | --- | --- | --- | --- | --- | --- |
| O=C1C(=Nc2ccc(Br)cc2)c2ccccc2N1c1ccccc1 [Example 98, 3-[(4-BROMOPHENYL)IMINO]-1-PHENYL-1,3-DIHYDRO-2H-INDOL-2-ONE] | < 5.00 | 4.3 ± 0.9^b | 0.1 ± 0.1 | 35 ± 2.6^a | 20.4 ± 1.9^c | 2.4 ± 0.3 | 0.8 ± 0.4 | 39 ± 1.1^a | 17.6 ± 1.0^c | 2.0 ± 0.3 | 0.2 ± 0.2 | 38 ± 2.3^a | 20.3 ± 2.1^c | resembling that of the clinically established antidepressant fluoxetine | – | – |
| O=C1C(=Nc2ccc(C(F)(F)F)cc2)c2ccccc2N1c1ccccc1 [Example 95, 1-PHENYL-3-[[4-(TRIFLUOROMETHYL)PHENYL]IMINO]-1,3-DIHYDRO-2H-INDOL-2-ONE] | < 5.00 | 2.6 ± 0.8 | 0.0 ± 0.0 | 40 ± 3.3 | 17.1 ± 2.5 | 1.3 ± 0.5 | 0.1 ± 0.1 | 52 ± 1.2^a | 6.9 ± 0.9^b | 1.0 ± 0.3 | 0.0 ± 0.0 | 54 ± 0.9^a | 4.8 ± 0.7^b | does not produce antidepressant-like actions | – | – |
| O=C1C(=Nc2ccc(Cl)cc2)c2ccccc2N1c1ccccc1 [Example 97, 3-[(4-CHLOROPHENYL)IMINO]-1-PHENYL-1,3-DIHYDRO-2H-INDOL-2-ONE] | < 5.00 | – | – | – | – | – | – | – | – | – | – | – | – | – | – | – |
| O=C1C(=Nc2cc(Cl)cc(Cl)c2)c2ccccc2N1c1ccccc1 [Example 103, 3-[(3,5-DICHLOROPHENYL)IMINO]-1-PHENYL-1,3-DIHYDRO-2H-INDOL-2-ONE] | < 5.00 | 2.8 ± 0.6 | 0.5 ± 0.4 | 44 ± 2.7 | – | 3.5 ± 0.6 | 0.4 ± 0.2 | 42 ± 2.2 | 14.3 ± 1.6 | 4.8 ± 0.7 | 1.1 ± 0.5 | 32 ± 1.8^a | 22.7 ± 1.1^c | has antidepressant properties | – | – |
| O=C1C(=Nc2cccc(C(F)(F)F)c2)c2ccccc2N1c1ccccc1 [Example 92, 1-PHENYL-3- [[3-(TRIFLUOROMETHYL)PHENYL]IMINO]-1,3-DIHYDRO-2H-INDOL-2-ONE] | – | – | – | – | – | – | – | – | – | – | – | – | – | – | – | Climbing ([2]; 1 mg/kg i.p., single injection, 5 minute test): 11.7 ± 1.1 counts; Climbing ([2]; 3 mg/kg i.p., single injection, 5 minute test): 14.6 ± 1.5 counts; Climbing [2, 7]: 8.6 ± 1.7 counts; Immobility [2, 7]: 25 ± 3.5 counts; Grooming bouts ([3]; 10 mg/kg i.p.): 6.1 ± 0.5; Rearings ([3]; 10 mg/kg i.p.): 47 ± 8^a; Grooming bouts ([3]; 30 mg/kg i.p.): 6.2 ± 0.7; Rearings ([3]; 30 mg/kg i.p.): 45 ± 5^b; Squares Crossed ([3]; 30 mg/kg i.p.): 368 ± 36; Squares Crossed ([3]; 100 mg/kg i.p.): 195 ± 19^c |
| CN(C)c1cc(Nc2ccc(Cl)c(Cl)c2)nc(Nc2ccccc2)n1 [Example 60] | – | – | – | – | – | – | – | – | – | – | – | – | – | – | < 5.30 | – |
| COC[C@@H]1[C@@H](c2ccccc2)OCCN1c1nc(Nc2ccc(C)cc2)cc(N2CCCCC2)n1 [Example 49] | – | 3.0 ± 0.7 | 1.0 ± 0.7 | 43 ± 1.9 | 13.1 ± 1.4 | 2.4 ± 0.7 | 0.0 ± 0.0 | 48 ± 1.7 | 10.0 ± 1.0 | 2.3 ± 0.4 | 0.4 ± 0.4 | 41 ± 2.0^a | 16.7 ± 1.3^d | – | – | pKi ([1]; read-out: Ki GalR1, pyrimidines): < 5.30 |
| O=C1C(=Nc2cccc(Cl)c2)c2ccccc2N1c1ccccc1 [Example 94, 3-[(3-CHLOROPHENYL)IMINO]-1-PHENYL-1,3-DIHYDRO-2H-INDOL-2-ONE] | < 5.00 | – | – | – | – | – | – | – | – | – | – | – | – | – | – | – |
| Cc1ccc(Nc2cc(N3CCCCC3)nc(N(C)CCc3ccccc3)n2)cc1 [Example 22] | – | 2.0 ± 0.6 | 0.4 ± 0.4 | 50 ± 0.9 | 7.6 ± 0.5 | 2.9 ± 0.5 | 0.4 ± 0.3 | 41 ± 1.3^c | 15.3 ± 0.8^g | 5.2 ± 1.0^a | 0.0 ± 0.0 | 31 ± 2.8^b | 23.2 ± 2.0^f | has antidepressant properties | 6.35 | – |
| CN(CCc1c[nH]c2ccccc12)c1nc(Nc2ccc(F)c(F)c2)cc(N2CCCCC2)n1 [Example 15] | – | – | – | – | – | – | – | – | – | – | – | – | – | – | 5.61 | – |
| Cc1ccc(Nc2cc(N(C)C)nc(N(C)CCc3c[nH]c4ccccc34)n2)cc1 [Example 77] | – | – | – | – | – | – | – | – | – | – | – | – | – | – | 5.42 | – |
